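Test compounds were applied to cells in 96-well plates for 48 hours at 5 doses. GI50 marks 50% less growth. TGI: total growth inhibition.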 A value given as a limit tells only on which side of the number the result lay.

The first test concerns OVCAR-4 ovarian. The test can be described thus: NCI-60 cell line screen, 48 h.
In the case of `Cc1cc(C2CC(O)C(CO)O2)cc2c(=O)[nH]c(N)nc12` (configuration not stated), the GI50 is above 100 µM and the TGI is above 100 µM.
Take `COc1ccc2c(O)cc3c(c2c1)[C@H](CCl)CN3C(=O)c1cc2cc(NC(=O)CCN3CCOCC3)ccc2[se]1`: the GI50 was below 0.001 µM and the TGI amounted to 0.783 µM.
Consider `CC(C)N=c1cc2n(-c3ccc(Cl)cc3)c3ccccc3nc-2cc1Nc1ccc(Cl)cc1`, for which the GI50 is 1.29 µM and the TGI is above 100 µM.
For `Cc1cc2c(cc1Cl)SC(=Nc1ccc(Cl)cc1)N(S(=O)(=O)c1ccccc1)S2(=O)=O`, in that order: 11 µM and 64.3 µM.
Take `Cc1ccc(S(=O)(=O)NCCNc2nccc(-c3c(-c4ccc(F)cc4)nc4sccn34)n2)cc1`: the GI50 was 4.98 µM and the TGI was 46.7 µM.
For the compound `C=C1C(=O)O[C@H]2[C@H]1CC/C(COC(=O)c1ccc(Cl)nc1)=C\CC[C@@]1(C)O[C@@H]21`, the GI50 was 4.49 µM and the TGI came out at 18.4 µM.
`C=C1C(=O)O[C@H]2/C=C(/C)C3=CC(=O)[C@@](C)(C[C@@H](OC(=O)/C(C)=C\C)C12)O3` (some centres not stated) had a TGI above 26.5 µM.
Consider `O=C(CSC(c1ccccc1)c1ccccc1)N/N=C/c1ccc(Cl)cc1Cl`, for which the GI50 is 38.8 µM and the TGI was above 100 µM.

A further test has as its system OVCAR-5 ovarian. Description: NCI-60 cell line screen, 48 h.
As for `CN(CCCNC(=O)Cc1ccc2ccc3cccc4ccc1c2c34)CCCNc1cc(-c2ccc3ccccc3c2)nc2ccccc12`, the GI50 is 1.82 µM and the TGI was found to be 3.28 µM.
Turning to `COCCOc1cnc2ccn([C@H](C)c3nnc4c(F)cc(-c5cnn(C)c5)cn34)c(=O)c2c1`, the GI50 was above 100 µM and the TGI was above 100 µM.
In the case of `O=C(Nc1ccc(-n2cc(-c3ccncc3)c(-c3ccc(Cl)c(O)c3)n2)cc1)Nc1ccc(Cl)c(C(F)(F)F)c1`, the GI50 is 3.3 µM and the TGI came to 8.98 µM.
For `Cc1cc(S(=O)(=O)N/N=C(\Sc2cc(Cl)c(C)cc2S(N)(=O)=O)c2ccc(Cl)cc2)c(Cl)cc1Cl`, in that order: above 100 µM and above 100 µM.
In the case of `COc1ccc(C(=O)COc2cccc(/C=C3\Oc4ccc5ccccc5c4C3=O)c2)cc1`, the GI50 is 12.7 µM and the TGI stood at 25.3 µM.
In turn, `Cc1c(C2=C(Br)C(=O)N(C)C2=O)c(=O)n(C)c(=O)n1C` yielded a TGI above 100 µM.
In the case of `Cc1cc(N/N=C/c2nc(-c3ccc(Br)cc3)oc2C)c2cc(Br)ccc2n1`, the GI50 is 10.7 µM and the TGI was determined as 22.5 µM.
As to `CC(C)OC(=O)NNc1cc(Cl)ccc1Cl`, the TGI is above 100 µM.
With `Cc1cc(C2CC(O)C(CO)O2)cc2c(=O)[nH]c(N)nc12` (configuration not stated), the GI50 is above 100 µM and the TGI is above 100 µM.
Consider `COc1ccc2c(O)cc3c(c2c1)[C@H](CCl)CN3C(=O)c1cc2cc(NC(=O)CCN3CCOCC3)ccc2[se]1`, for which the GI50 was below 0.001 µM and the TGI was 1.29 µM.
With `CC(C)N=c1cc2n(-c3ccc(Cl)cc3)c3ccccc3nc-2cc1Nc1ccc(Cl)cc1`, the GI50 is 2.15 µM and the TGI was above 100 µM.
For the compound `Cc1cc2c(cc1Cl)SC(=Nc1ccc(Cl)cc1)N(S(=O)(=O)c1ccccc1)S2(=O)=O`, the GI50 was 4.43 µM and the TGI was determined as 18.7 µM.
For `Cc1ccc(S(=O)(=O)NCCNc2nccc(-c3c(-c4ccc(F)cc4)nc4sccn34)n2)cc1`, the GI50 is above 100 µM and the TGI is above 100 µM.
In the case of `C=C1C(=O)O[C@H]2[C@H]1CC/C(COC(=O)c1ccc(Cl)nc1)=C\CC[C@@]1(C)O[C@@H]21`, the GI50 was 2.95 µM and the TGI is 9.4 µM.
Turning to `C=C1C(=O)O[C@H]2/C=C(/C)C3=CC(=O)[C@@](C)(C[C@@H](OC(=O)/C(C)=C\C)C12)O3` (some centres not stated), the TGI was determined as 6.19 µM.
As to `O=C(CSC(c1ccccc1)c1ccccc1)N/N=C/c1ccc(Cl)cc1Cl`, the GI50 is 31.6 µM and the TGI is above 100 µM.

The next test relates to SK-OV-3 ovarian. The test can be described thus: NCI-60 cell line screen, 48 h.
Turning to `N#C/C(=C/N1CCN(C(=O)c2ccco2)C1=S)C(=O)c1ccccc1`, the GI50 is 37.4 µM and the TGI was above 100 µM.
For `CN(CCCNC(=O)Cc1ccc2ccc3cccc4ccc1c2c34)CCCNc1cc(-c2ccc3ccccc3c2)nc2ccccc12`, in that order: 1.64 µM and 3.06 µM.
Take `COCCOc1cnc2ccn([C@H](C)c3nnc4c(F)cc(-c5cnn(C)c5)cn34)c(=O)c2c1`: the GI50 is above 100 µM and the TGI is above 100 µM.
Consider `O=C(Nc1ccc(-n2cc(-c3ccncc3)c(-c3ccc(Cl)c(O)c3)n2)cc1)Nc1ccc(Cl)c(C(F)(F)F)c1`, for which the GI50 is 2.02 µM and the TGI came out at 4.69 µM.
For `Cc1cc(S(=O)(=O)N/N=C(\Sc2cc(Cl)c(C)cc2S(N)(=O)=O)c2ccc(Cl)cc2)c(Cl)cc1Cl`, the GI50 is above 100 µM and the TGI is above 100 µM.
As to `COc1ccc(-c2oc3cc(O)c(OC)c(O)c3c(=O)c2OC)cc1O`, the GI50 was 0.207 µM and the TGI is 16.4 µM.
Regarding `Cc1c(C2=C(Br)C(=O)N(C)C2=O)c(=O)n(C)c(=O)n1C`, the TGI is above 100 µM.
For the compound `Cc1cc(N/N=C/c2nc(-c3ccc(Br)cc3)oc2C)c2cc(Br)ccc2n1`, the GI50 was 16.6 µM and the TGI came to 30.2 µM.
Take `CC(C)OC(=O)NNc1cc(Cl)ccc1Cl`: the TGI was above 100 µM.
As to `Cc1cc(C2CC(O)C(CO)O2)cc2c(=O)[nH]c(N)nc12` (configuration not stated), the GI50 was above 100 µM and the TGI was above 100 µM.
`COc1ccc2c(O)cc3c(c2c1)[C@H](CCl)CN3C(=O)c1cc2cc(NC(=O)CCN3CCOCC3)ccc2[se]1`: the GI50 is below 0.001 µM.
As for `CC(C)N=c1cc2n(-c3ccc(Cl)cc3)c3ccccc3nc-2cc1Nc1ccc(Cl)cc1`, the GI50 was 2.15 µM and the TGI was above 50 µM.
As for `Cc1cc2c(cc1Cl)SC(=Nc1ccc(Cl)cc1)N(S(=O)(=O)c1ccccc1)S2(=O)=O`, the GI50 was 12 µM and the TGI was found to be 44.4 µM.
As for `Cc1ccc(S(=O)(=O)NCCNc2nccc(-c3c(-c4ccc(F)cc4)nc4sccn34)n2)cc1`, the GI50 is 12.4 µM and the TGI is 40.3 µM.
As for `C=C1C(=O)O[C@H]2[C@H]1CC/C(COC(=O)c1ccc(Cl)nc1)=C\CC[C@@]1(C)O[C@@H]21`, the GI50 was 14.8 µM and the TGI stood at 28.5 µM.
The compound `C=C1C(=O)O[C@H]2/C=C(/C)C3=CC(=O)[C@@](C)(C[C@@H](OC(=O)/C(C)=C\C)C12)O3` (some centres not stated) displayed a TGI of 26 µM.
